Measured values reported in PubChem BioAssay AID248 (DTP/NCI, 2004).
Inconclusive results and toxic doses are left out.

Test system: L1210 leukemia ip in BDF1 mice, survival T/C
Experiment: NCI In Vivo Anticancer Drug Screen. Data for tumor model L1210 Leukemia (intraperitoneal) in B6D2F1 (BDF1) mice
Settings: endpoint: mean survival time, higher = longer survival
Outline: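 Survival endpoint. Drug-treated group vs vehicle group, expressed as T divided by C. Tumor passaged by transplantation.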

[1] = dose: 100.0 mg/kg/injection, schedule: Q01DX009 (ip), vehicle: saline with Tween-80
[2] = dose: 200.0 mg/kg/injection, schedule: Q01DX009 (ip), vehicle: saline with Tween-80
[3] = dose: 25.0 mg/kg/injection, schedule: Q01DX009 (ip), vehicle: saline
[4] = dose: 50.0 mg/kg/injection, schedule: Q01DX009 (ip), vehicle: saline
[5] = dose: 100.0 mg/kg/injection, schedule: Q01DX009 (ip), vehicle: saline
[6] = dose: 200.0 mg/kg/injection, schedule: Q01DX009 (ip), vehicle: saline
[7] = dose: 100.0 mg/kg/injection, schedule: Q04DX003 (ip), vehicle: saline with Tween-80
[8] = dose: 200.0 mg/kg/injection, schedule: Q04DX003 (ip), vehicle: saline with Tween-80
[9] = dose: 400.0 mg/kg/injection, schedule: Q04DX003 (ip), vehicle: saline with Tween-80
[10] = dose: 100.0 mg/kg/injection, schedule: Q04DX003 (ip), vehicle: Klucel (hydroxypropylcellulose) (HPC)

## CC(C)(C(Cl)Cl)S(=O)(=O)O (tested in a mixture with another compound)
dose: 9.0 mg/kg/injection, schedule: Q01DX001 (ip), vehicle: other
  T/C: 95 % of control
dose: 18.0 mg/kg/injection, schedule: Q01DX001 (ip), vehicle: other
  T/C: 106 % of control
dose: 37.0 mg/kg/injection, schedule: Q01DX001 (ip), vehicle: other
  T/C: 103 % of control
dose: 75.0 mg/kg/injection, schedule: Q01DX001 (ip), vehicle: other
  T/C: 98 % of control
dose: 75.0 mg/kg/injection, schedule: Q01DX009 (ip), vehicle: saline with Tween-80
  T/C: 107 % of control
dose: 75.0 mg/kg/injection, schedule: Q04DX003 (ip), vehicle: other
  T/C: 111 % of control
dose: 150.0 mg/kg/injection, schedule: Q01DX001 (ip), vehicle: other
  T/C: 101 % of control
dose: 150.0 mg/kg/injection, schedule: Q01DX009 (ip), vehicle: saline with Tween-80
  T/C: 105 % of control
dose: 150.0 mg/kg/injection, schedule: Q04DX003 (ip), vehicle: other
  T/C: 118 % of control
dose: 300.0 mg/kg/injection, schedule: Q01DX001 (ip), vehicle: other
  T/C: 113 % of control
dose: 300.0 mg/kg/injection, schedule: Q01DX009 (ip), vehicle: saline with Tween-80
  T/C: 102 % of control
dose: 300.0 mg/kg/injection, schedule: Q04DX003 (ip), vehicle: other
  T/C: 116 % of control

## CCCCCCCCCCCC[N+]1(CCCCCCCCCCCC)CCCC(C)C1 (configuration not stated)
dose: 3.0 mg/kg/injection, schedule: Q04DX002 (ip), vehicle: Klucel (hydroxypropylcellulose) (HPC)
  T/C: 109 % of control
dose: 6.0 mg/kg/injection, schedule: Q04DX002 (ip), vehicle: Klucel (hydroxypropylcellulose) (HPC)
  T/C: 87 % of control

## CCOC(=O)C(C(C)=O)C1c2ccccc2Nc2ccccc21 (configuration not stated)
dose: 50.0 mg/kg/injection, schedule: Q01DX009 (ip), vehicle: saline with Tween-80
  T/C: 98 % of control
[1]
  T/C: 109 % of control
[2]
  T/C: 106 % of control

## CC1=CC(=O)C(=O)C=C1O
dose: 50.0 mg/kg/injection, schedule: Q01DX001 (ip), vehicle: water
  T/C: 103 % of control
dose: 100.0 mg/kg/injection, schedule: Q01DX001 (ip), vehicle: water
  T/C: 113 % of control
dose: 200.0 mg/kg/injection, schedule: Q01DX001 (ip), vehicle: water
  T/C: 108 % of control
dose: 400.0 mg/kg/injection, schedule: Q01DX001 (ip), vehicle: water
  T/C: 110 % of control

## Cc1ncc(CO)c(C)c1O
dose: 0.03 mg/kg/injection, schedule: Q02DX010 (ip), vehicle: saline
  T/C: 118 % of control
dose: 0.04 mg/kg/injection, schedule: Q02DX010 (ip), vehicle: saline
  T/C: 118 % of control
dose: 0.07 mg/kg/injection, schedule: Q02DX010 (ip), vehicle: saline
  T/C: 123 % of control
dose: 0.15 mg/kg/injection, schedule: Q02DX010 (ip), vehicle: saline
  T/C: 86 % of control
dose: 0.23 mg/kg/injection, schedule: Q02DX010 (ip), vehicle: saline
  T/C: 86 % of control
dose: 12.5 mg/kg/injection, schedule: Q01DX009 (ip), vehicle: saline
  T/C: 98 % of control
dose: 22.81 mg/kg/injection, schedule: Q01DX Z (ip), vehicle: carboxymethylcellulose (CMC)
  T/C: 102 % of control
[3]
  T/C: 95 % of control
dose: 45.62 mg/kg/injection, schedule: Q01DX Z (ip), vehicle: carboxymethylcellulose (CMC)
  T/C: 101 % of control
[4]
  T/C: 103 % of control
dose: 91.25 mg/kg/injection, schedule: Q01DX Z (ip), vehicle: carboxymethylcellulose (CMC)
  T/C: 105 % of control
[5]
  T/C: 102 % of control
dose: 182.3 mg/kg/injection, schedule: Q01DX Z (ip), vehicle: carboxymethylcellulose (CMC)
  T/C: 110 % of control
[6]
  T/C: 108 % of control

## O=C(Nc1cc([N+](=O)[O-])ccc1Cl)Nc1ccccc1C(F)(F)F
dose: 100.0 mg/kg/injection, schedule: Q01DX009 (ip), vehicle: Klucel (hydroxypropylcellulose) (HPC)
  T/C: 104 % of control
dose: 200.0 mg/kg/injection, schedule: Q01DX009 (ip), vehicle: Klucel (hydroxypropylcellulose) (HPC)
  T/C: 94 % of control
dose: 400.0 mg/kg/injection, schedule: Q01DX009 (ip), vehicle: Klucel (hydroxypropylcellulose) (HPC)
  T/C: 93 % of control

## CC(C)CCC(C)(C)C1=CC(=O)C=CC1=O
dose: 100.0 mg/kg/injection, schedule: Q04DX002 (ip), vehicle: saline with Tween-80
  T/C: 93 % of control
dose: 200.0 mg/kg/injection, schedule: Q04DX002 (ip), vehicle: saline with Tween-80
  T/C: 90 % of control
dose: 400.0 mg/kg/injection, schedule: Q04DX002 (ip), vehicle: saline with Tween-80
  T/C: 93 % of control

## O=C(O)C(O)(c1ccccc1)C(O)c1ccccc1 (configuration not stated)
[1]
  T/C: 113 % of control
[7]
  T/C: 100 % of control
[2]
  T/C: 97 % of control
[8]
  T/C: 100 % of control
dose: 400.0 mg/kg/injection, schedule: Q01DX009 (ip), vehicle: saline with Tween-80
  T/C: 98 % of control
[9]
  T/C: 95 % of control

## CC(=O)/C=C\c1ccc([N+](=O)[O-])o1
dose: 100.0 mg/kg/injection, schedule: Q04DX002 (ip), vehicle: Klucel (hydroxypropylcellulose) (HPC)
  T/C: 115 % of control
dose: 200.0 mg/kg/injection, schedule: Q04DX002 (ip), vehicle: Klucel (hydroxypropylcellulose) (HPC)
  T/C: 89 % of control

## O=C1OC(c2ccc([N+](=O)[O-])cc2)=N/C1=C\c1cccc2ccccc12
dose: 100.0 mg/kg/injection, schedule: Q01DX009 (ip), vehicle: other
  T/C: 96 % of control
dose: 200.0 mg/kg/injection, schedule: Q01DX009 (ip), vehicle: other
  T/C: 88 % of control
dose: 400.0 mg/kg/injection, schedule: Q01DX009 (ip), vehicle: other
  T/C: 93 % of control

## CC(C)(C)/C(=N\[N+](C)(C)C)c1ccccc1
dose: 100.0 mg/kg/injection, schedule: Q04DX003 (ip), vehicle: saline
  T/C: 98 % of control

## O=C(Nc1ccc(S(=O)(=O)F)cc1)/C(=C/c1ccc([N+](=O)[O-])cc1)CCc1ccccc1
[7]
  T/C: 105 % of control
[8]
  T/C: 97 % of control
[9]
  T/C: 94 % of control

## O=C(c1ccc([N+](=O)[O-])cc1)N1CC1Cc1ccccc1 (configuration not stated)
dose: 100.0 mg/kg/injection, schedule: Q01DX001 (ip), vehicle: Klucel (hydroxypropylcellulose) (HPC)
  T/C: 89 % of control
dose: 200.0 mg/kg/injection, schedule: Q01DX001 (ip), vehicle: Klucel (hydroxypropylcellulose) (HPC)
  T/C: 89 % of control

## CC(=O)OC(c1ccccc1)C(C)C (configuration not stated)
dose: 100.0 mg/kg/injection, schedule: Q04DX002 (ip), vehicle: saline
  T/C: 107 % of control
dose: 200.0 mg/kg/injection, schedule: Q04DX002 (ip), vehicle: saline
  T/C: 96 % of control
dose: 400.0 mg/kg/injection, schedule: Q04DX002 (ip), vehicle: saline
  T/C: 103 % of control

## O=C(NCc1cnccn1)Nc1ccccc1
[3]
  T/C: 101 % of control
[4]
  T/C: 87 % of control
[5]
  T/C: 108 % of control
[6]
  T/C: 102 % of control
dose: 400.0 mg/kg/injection, schedule: Q01DX009 (ip), vehicle: saline
  T/C: 103 % of control

## Cc1cc(NC(=O)Nc2ccc(C3=NCCN3)cc2)ccc1NC(=O)Nc1ccc(C2=NCCN2)cc1
dose: 62.0 mg/kg/injection, schedule: Q01DX Z (ip), vehicle: carboxymethylcellulose (CMC)
  T/C: 124 % of control
dose: 250.0 mg/kg/injection, schedule: Q01DX Z (ip), vehicle: carboxymethylcellulose (CMC)
  T/C: 151 % of control

## O=C(O)C(Cc1ccccc1)C(=O)O.[NH2-].[NH2-].[Pt+2]
dose: 25.0 mg/kg/injection, schedule: Q04DX003 (ip), vehicle: Klucel (hydroxypropylcellulose) (HPC)
  T/C: 102 % of control
dose: 50.0 mg/kg/injection, schedule: Q04DX003 (ip), vehicle: Klucel (hydroxypropylcellulose) (HPC)
  T/C: 98 % of control
[10]
  T/C: 119 % of control
dose: 200.0 mg/kg/injection, schedule: Q04DX003 (ip), vehicle: Klucel (hydroxypropylcellulose) (HPC)
  T/C: 104 % of control

## O=C(O)c1ccc(N=Cc2ccc([N+](=O)[O-])s2)cc1
dose: 25.0 mg/kg/injection, schedule: Q04DX003 (ip), vehicle: saline with Tween-80
  T/C: 94 % of control
dose: 50.0 mg/kg/injection, schedule: Q04DX003 (ip), vehicle: saline with Tween-80
  T/C: 100 % of control
[10]
  T/C: 103 % of control
[7]
  T/C: 102 % of control

## CCCCCCCCCCCCCCCC(=O)NOCc1cscn1
dose: 100.0 mg/kg/injection, schedule: Q01DX001 (ip), vehicle: other
  T/C: 104 % of control
dose: 100.0 mg/kg/injection, schedule: Q04DX003 (ip), vehicle: acetone
  T/C: 93 % of control
dose: 200.0 mg/kg/injection, schedule: Q01DX001 (ip), vehicle: other
  T/C: 94 % of control
dose: 200.0 mg/kg/injection, schedule: Q04DX003 (ip), vehicle: acetone
  T/C: 93 % of control
dose: 400.0 mg/kg/injection, schedule: Q01DX001 (ip), vehicle: other
  T/C: 98 % of control
dose: 400.0 mg/kg/injection, schedule: Q04DX003 (ip), vehicle: acetone
  T/C: 98 % of control
